Experiments:
Format in all cases: in vivo
Helicoverpa armigera = Helicoverpa armigera diet incorporation method; details: third instar larvae, dead and moribund combined, 96 h after release
Method in brief: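 Third-instar larvae, starved, were placed singly on diet pieces containing test dispersion (bead-milled in surfactant, particles under 2 μm, 500 ppm stock then diluted). Trays kept at 25° C. and 70% RH; mortality counted at 96 h, moribund larvae counted with dead.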

Plutella xylostella = assay: whole plant or invertebrate; details: foliar, cabbage leaf dip, second instar larvae, dead and moribund combined, 72 h after release
Method in brief: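 Leaf-dip bioassay: second-instar larvae, singly, fed on cabbage leaves dipped 10 s in test dispersion (bead-milled, diluted with 0.01% Triton-X to test concentration) and dried 20 min. Held at 25 °C, 70% RH; % mortality counts dead and moribund at 72 h.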

Spodoptera litura = Spodoptera litura diet incorporation method; details: third instar larvae, dead and moribund combined, 96 h after release
Method in brief: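 Compound milled to <2 μm average particle size in surfactant, dispersed in water (500 ppm stock dispersion), then mixed into semi-synthetic diet at ~50° C. One starved third-instar larva per diet cell, 25° C, 70% RH; percent mortality (dead plus moribund) scored at 96 h.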

Measured: mortality at 300 ppm

COc1cc(C(=O)Nc2c(C)cc3ccnn3c2C(=O)NCC(F)F)n(-c2ncccc2Cl)n1 [Compound 214, 6-(1-(3-chloropyridin-2-yl)-3-methoxy-1H-pyrazole-5-carboxamido)-N-(2,2-difluoroethyl)-5-methylpyrazolo[1,5-a]pyridine-7-carboxamide]
> 70%: all assays above

Cc1cc2ccnn2c(C(=O)NCC2CCOCC2)c1NC(=O)c1cc(Br)nn1-c1ncccc1Cl [Compound 195, 6-(3-bromo-1-(3-chloropyridin-2-yl)-1H-pyrazole-5-carboxamido)-5-methyl-N-((tetrahydro-2H-pyran-4-yl)methyl)pyrazolo[1,5-a]pyridine-7-carboxamide]
> 70%: all assays above

COc1cc(C(=O)Nc2c(C)cc3ccnn3c2C(=O)NC2COC2)n(-c2ncccc2Cl)n1 [Compound 46, 6-(1-(3-chloropyridin-2-yl)-3-methoxy-1H-pyrazole-5-carboxamido)-5-methyl-N-(oxetan-3-yl)pyrazolo[1,5-a]pyridine-7-carboxamide]
> 70%: all assays above

CC(C)NC(=O)c1c(NC(=O)c2cc(Br)nn2-c2ncccc2Cl)c(Br)cc2ccnn12 [Compound 91, 5-bromo-6-(3-bromo-1-(3-chloropyridin-2-yl)-1H-pyrazole-5-carboxamido)-N-isopropylpyrazolo[1,5-a]pyridine-7-carboxamide]
> 70%: all assays above

CCCCNC(=O)c1c(NC(=O)c2cc(Br)nn2-c2ncccc2Cl)c(Cl)cc2ccnn12 [Compound 139, 6-(3-bromo-1-(3-chloropyridin-2-yl)-1H-pyrazole-5-carboxamido)-N-butyl-5-chloropyrazolo[1,5-a]pyridine-7-carboxamide]
> 70%: all assays above

CCNC(=O)c1c(NC(=O)c2cc(Br)nn2-c2ncccc2Cl)c(C)cc2ccnn12 [Compound 2, 6-(3-bromo-1-(3-chloropyridin-2-yl)-1H-pyrazole-5-carboxamido)-N-ethyl-5-methylpyrazolo[1,5-a]pyridine-7-carboxamide]
> 70%: all assays above

CCCNC(=O)c1c(NC(=O)c2cc(OC)nn2-c2ncccc2Cl)c(C)cc2ccnn12 [Compound 29, 6-(1-(3-chloropyridin-2-yl)-3-methoxy-1H-pyrazole-5-carboxamido)-5-methyl-N-propylpyrazolo[1,5-a]pyridine-7-carboxamide]
> 70%: all assays above

Cc1cc2ccnn2c(C(=O)NC2COC2)c1NC(=O)c1cc(Br)nn1-c1ncccc1Cl [Compound 35, 6-(3-bromo-1-(3-chloropyridin-2-yl)-1H-pyrazole-5-carboxamido)-5-methyl-N-(oxetan-3-yl)pyrazolo[1,5-a]pyridine-7-carboxamide]
> 70%: all assays above

Cc1cc2ccnn2c(C(=O)NC(C)C2CC2)c1NC(=O)c1cc(C(F)(F)F)nn1-c1ncccc1Cl (stereo not drawn) [Compound 126, 6-(1-(3-chloropyridin-2-yl)-3-(trifluoromethyl)-1H-pyrazole-5-carboxamido)-N-(1-cyclopropylethyl)-5-methylpyrazolo[1,5-a]pyridine-7-carboxamide]
> 70%: all assays above

CONC(=O)c1c(NC(=O)c2cc(Br)nn2-c2ncccc2Cl)c(C)cc2ccnn12 [Compound 24, 6-(3-bromo-1-(3-chloropyridin-2-yl)-1H-pyrazole-5-carboxamido)-N-methoxy-5-methylpyrazolo[1,5-a]pyridine-7-carboxamide]
> 70%: all assays above

CCNC(=O)c1c(NC(=O)c2cc(OCC(F)(F)F)nn2-c2ncccc2Cl)c(C)cc2ccnn12 [Compound 10, 6-(1-(3-chloropyridin-2-yl)-3-(2,2,2-trifluoroethoxy)-1H-pyrazole-5-carboxamido)-N-ethyl-5-methylpyrazolo[1,5-a]pyridine-7-carboxamide]
> 70%: all assays above

COc1cc(C(=O)Nc2c(Br)cc3ccnn3c2C(=O)NC(C)(C)C)n(-c2ncccc2Cl)n1 [Compound 119, 5-bromo-N-(tert-butyl)-6-(1-(3-chloropyridin-2-yl)-3-methoxy-1H-pyrazole-5-carboxamido)pyrazolo[1,5-a]pyridine-7-carboxamide]
> 70%: all assays above

CNC(=O)c1c(NC(=O)c2cc(C(F)(F)F)nn2-c2ncccc2Cl)c(C)cc2ccnn12 [Compound 63, 6-(1-(3-chloropyridin-2-yl)-3-(trifluoromethyl)-1H-pyrazole-5-carboxamido)-N,5-dimethylpyrazolo[1,5-a]pyridine-7-carboxamide]
> 70%: all assays above

CCCNC(=O)c1c(NC(=O)c2cc(Br)nn2-c2ncccc2Cl)c(Cl)cc2ccnn12 [Compound 151, 6-(3-bromo-1-(3-chloropyridin-2-yl)-1H-pyrazole-5-carboxamido)-5-chloro-N-propylpyrazolo[1,5-a]pyridine-7-carboxamide]
> 70%: all assays above

CCNC(=O)c1c(NC(=O)c2cc(Cn3nnc(C(F)(F)F)n3)nn2-c2ncccc2Cl)c(C)cc2ccnn12 [Compound 167, 6-(1-(3-chloropyridin-2-yl)-3-((5-(trifluoromethyl)-2H-tetrazol-2-yl)methyl)-1H-pyrazole-5-carboxamido)-N-ethyl-5-methylpyrazolo[1,5-a]pyridine-7-carboxamide]
> 70%: all assays above

COCCNC(=O)c1c(NC(=O)c2cc(Br)nn2-c2ncccc2Cl)c(C)cc2ccnn12 [Compound 7, 6-(3-bromo-1-(3-chloropyridin-2-yl)-1H-pyrazole-5-carboxamido)-N-(2-methoxyethyl)-5-methylpyrazolo[1,5-a]pyridine-7-carboxamide]
> 70%: all assays above

Cc1cc2ccnn2c(C(=O)NC(C)(C)C)c1NC(=O)c1cc(Br)nn1-c1ncccc1Cl [Compound 8, 6-(3-bromo-1-(3-chloropyridin-2-yl)-1H-pyrazole-5-carboxamido)-N-(tert-butyl)-5-methylpyrazolo[1,5-a]pyridine-7-carboxamide]
> 70%: all assays above

COc1cc(C(=O)Nc2c(C)cc3ccnn3c2C(=O)NC2CC2)n(-c2ncccc2Cl)n1 [Compound 26, 6-(1-(3-chloropyridin-2-yl)-3-methoxy-1H-pyrazole-5-carboxamido)-N-cyclopropyl-5-methylpyrazolo[1,5-a]pyridine-7-carboxamide]
> 70%: all assays above

CNC(=O)c1c(NC(=O)c2cc(OC)nn2-c2ncccc2Cl)c(Cl)cc2ccnn12 [Compound 135, 5-chloro-6-(1-(3-chloropyridin-2-yl)-3-methoxy-1H-pyrazole-5-carboxamido)-N-methylpyrazolo[1,5-a]pyridine-7-carboxamide]
> 70%: all assays above

Cc1cc2ccnn2c(C(=O)NC(C)C(F)(F)F)c1NC(=O)c1cc(Br)nn1-c1ncccc1Cl (stereo not drawn) [Compound 187, 6-(3-bromo-1-(3-chloropyridin-2-yl)-1H-pyrazole-5-carboxamido)-5-methyl-N-(1,1,1-trifluoropropan-2-yl)pyrazolo[1,5-a]pyridine-7-carboxamide]
> 70%: all assays above

Cc1cc2ccnn2c(C(=O)NCC#N)c1NC(=O)c1cc(OCC(F)(F)F)nn1-c1ncccc1Cl [Compound 15, 6-(1-(3-chloropyridin-2-yl)-3-(2,2,2-trifluoroethoxy)-1H-pyrazole-5-carboxamido)-N-(cyanomethyl)-5-methylpyrazolo[1,5-a]pyridine-7-carboxamide]
> 70%: all assays above

From patent US12024510B2, “Pyrazolopyridine-diamides, their use as insecticide and processes for preparing the same” (PI INDUSTRIES LTD., priority 2017, dated 2024)
